According to patent publication US4389412A, “Substituted cyclopropanecarboxylic acid esters and pesticidal compositions containing the same as active ingredient” (priority 1979, dated 1983):
Converted amounts (≈) assume the structure as drawn. Where two headings read alike, the source gives them in different places.

Columns and labels:
[1] = tested on: green rice leafhoppers (Nephotettix cincticeps Uhler); experiment: Mortality test with green rice leafhoppers by topical application method; details: Nephotettix cincticeps, in Oryza sativa, 24 h; for LD50: read-out: LD50 (median lethal dose), topical, green rice leafhoppers; for mortality at 10 ng: read-out: Pesticidal effect, green rice leafhopper
Method: Mortality test with green rice leafhoppers (Nephotettix cincticeps Uhler) by topical application method
Then, the insects were kept at 25° C. with access to rice plant seedlings. The insects were used in groups of 15 individuals each.

[2] = tested on: tobacco cutworms (Prodenia litura Fabricius); experiment: Mortality test with tobacco cutworms by topical application method; type: in vivo; details: 24 h
Method: Mortality test with tobacco cutworms (Prodenia litura Fabricius) by topical application method
Using a microsyringe, 0.5 μl of the above solution was dripped onto the thoracic adbominal region of each of 3-instar tobacco cutworm (Prodenia litura Fabricius) larvae. […] The test larvae were used in groups of 20 individuals each.

[3] = Fish toxicity test with killifish; type: in vivo, Orizias latipes; details: water, killifish, 25±1° C., read-out: TLm (48 hrs.)
Outline: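 Test compound dispensed from acetone solution into water at set concentrations; ten aerated-water killifish (~0.25 g, ~2.5 cm) held at 25±1° C. Deaths scored after 48 hours; TLm (median tolerance limit, ppm) determined.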

[4] = Fish toxicity test with carp; type: in vivo, Cyprinus carpio L; details: carp, water
Outline: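 Compound in acetone with Tween-20 dispersed in 50 L aerated water at a set concentration; five carp (about 6 g, 6 cm) exposed at 21±1° C. Deaths checked after 48 h, and TLm (median tolerance limit, ppm) determined.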

carp and water flea = experiment: Fish toxicity ranking according to Japanese regulations; design: species or system Cyprinus carpio L; Daphnia pulex; details: from TLm for carp and water flea
Outline: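 Ranking per Japanese agrochemical regulations from median tolerance limits: A = carp TLm (48 hrs.) >10 ppm and water flea TLm (3 hrs.) >0.5 ppm; B = carp 10-0.5 ppm, or carp >10 ppm with water flea <0.5 ppm; C = carp TLm (48 hrs.) <0.5 ppm.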

[5] = tested on: green rice leafhoppers (Nephotettix cincticeps Uhler); experiment: Utility Example-2: spray on rice plants, green rice leafhoppers; type: in vivo; details: 7 ml/pot, 24 hours
Method: A 30% emulsifiable concentrate of each of the cis- and trans-isomers and a 50:50 mixture of the cis- and trans-isomers of Compound (1) and Compound (2) as prepared by the procedure described in Formulation Example-1 was diluted with water to a concentration of 80 ppm as active compound. Rice plants 4 weeks after sowing in pots (each pot 6 cm in diameter, 7 seedlings) were sprayed with the above solution at the rate of 7 ml/pot and, after drying in the air, each pot was covered with a wire-mesh cage. Then, 20 female adult green rice leafhoppers (Nephotettix cincticeps Uhler) were released into the cage. The caged pots were kept in a constant-temperature chamber at 25° C. […] In all groups, the mortality values were not less than 90%.

[6] = tested on: green rice leafhoppers (Nephotettix cincticeps); experiment: Utility Example-6: 0.5% dust on rice seedlings, green rice leafhoppers; type: in vivo; details: 1 kg per 10 ares, 24 hours, resistant to organophosphorus and carbamate pesticides
Source text: A 0.5% dust preparation of each of the cis- and trans-isomers and a 50:50 mixture of the cis- and trans-isomers of Compound (1) and of Compound (2) as prepared by the procedure described in Formulation Example-4 was applied to rice seedlings by means of a bell-jar duster at the rate of 1 kg per 10 ares. Then, 30 green rice leafhoppers (Nephotettix cincticeps) resistant to organophosphorus and carbamate pesticides were released. […] In all cases, the mortality was not less than 90%.

[7] = tested on: brown planthoppers (Nilaparvata lugens); experiment: Utility Example-7: 0.5% dust on rice seedlings, brown planthoppers; type: in vivo; details: 1 kg per 10 ares, 24 hours
Source text: A 0.5% dust preparation of each of the cis- and trans-isomers and a 50:50 mixture of the cis- and trans-isomers of Compound (1) and of Compound (2) as prepared by the procedure described in Formulation Example-4 was applied to rice seedlings, on which 30 adult brown planthoppers (Nilaparvata lugens) were released, by means of a bell-jar duster at the rate of 1 kg per 10 ares. […] In all cases, the mortality was not less than 90%.

[8] = 48 hrs., 21±1° C., read-out: TLm, Carp (48 hrs.)
[9] = read-out: Pesticidal effect, tobacco cutworm

For `CC1(C)[C@@H](C=C(Cl)Cl)[C@@H]1C(=O)OCc1cccc(Oc2ccc(Cl)cc2)c1` (relative stereo) [Compound (1) trans-, 3-(4-chlorophenoxy)benzyl trans-2,2-dimethyl-3-(2,2-dichlorovinyl)cyclopropanecarboxylate], the mortality at 0.01 µg/female [1] was 100%, the mortality at 0.1 µg/female [1] was 100% and the mortality at 1 µg/female [1] was 100%. The LD50 [1] was 0.68 mg/kg, the mortality at 0.0001 mg [2] was 100% and the LC50 at 48 h [3] was over 10 µg/mL. For the same molecule, the LC50 at 48 h [4, 8] was 4.5 µg/mL (≈ 10.6 µM), the Ranking (carp and water flea) was “B (TLm (48 hrs.) value 10-0.5 ppm for carp; or TLm (48 hrs.) value >10 ppm for carp and TLm (3 hrs.) value <0.5 ppm for water flea, wherein appreciable toxicity to fishes is not observed by usual application but may be observed when applied to wide area at one time.)” and the mortality at 80 ppm [5] was at least 90%. The mortality [6] was “not less than 90%” and the mortality [7] was “not less than 90%”.
With `C#CC(OC(=O)[C@@H]1[C@H](C=C(Cl)Cl)C1(C)C)c1cccc(Oc2ccc(Cl)cc2)c1` (relative stereo) [Compound (2) cis-] the mortality at 0.01 µg/female [1] was 100%, the mortality at 0.1 µg/female [1] was 100% and the mortality at 1 µg/female [1] was 100%. It also gave an LD50 [1] of 0.44 mg/kg, a mortality at 0.0001 mg [2] of 100% and an LC50 at 48 h [3] of over 10 µg/mL. The LC50 at 48 h [4, 8] was 0.83 µg/mL (≈ 1.85 µM), the Ranking (carp and water flea) was “B (TLm (48 hrs.) value 10-0.5 ppm for carp; or TLm (48 hrs.) value >10 ppm for carp and TLm (3 hrs.) value <0.5 ppm for water flea, wherein appreciable toxicity to fishes is not observed by usual application but may be observed when applied to wide area at one time.)” and the mortality at 80 ppm [5] was at least 90%. For the same molecule, the mortality [6] was “not less than 90%” and the mortality [7] was “not less than 90%”.
For `C#CC(OC(=O)[C@@H]1[C@@H](C=C(Cl)Cl)C1(C)C)c1cccc(Oc2ccc(Cl)cc2)c1` (relative stereo) [Compound (2) trans-], the mortality at 0.01 µg/female [1] was 100%, the mortality at 0.1 µg/female [1] was 100% and the mortality at 1 µg/female [1] was 100%. The LD50 [1] was 0.45 mg/kg, the mortality at 0.0001 mg [2] was 100% and the LC50 at 48 h [3] was over 10 µg/mL. The LC50 at 48 h [4, 8] was over 10 µg/mL, the LC50 at 48 h ([4]; Table 12 and text of Utility Example-1, read-out: Toxicity to fish TLm) was over 10 µg/mL and the Ranking (carp and water flea) was “A (TLm (48 hrs.) value >10 ppm for carp and TLm (3 hrs.) value >0.5 ppm for water flea, wherein toxicity to fishes is not observed by usual application.)”. For the same molecule, the mortality at 80 ppm [5] was at least 90%, the mortality [6] was “not less than 90%” and the mortality [7] was “not less than 90%”.
`CC1(C)C(C=C(Cl)Cl)C1C(=O)OCc1cccc(Oc2ccccc2)c1` (centres unmarked) [Compound (B), Permethrin] showed a mortality at 0.01 µg/female [1] of 80%, a mortality at 0.1 µg/female [1] of 100% and a mortality at 1 µg/female [1] of 100%. It also gave an LD50 [1] of 1.25 mg/kg, a mortality at 10 ng [1] of 80% and a mortality at 0.0001 mg [2] of 85%. It also gave a mortality at 0.0001 mg [2, 9] of 85%, an LC50 at 48 h [3] of 0.04 µg/mL (≈ 0.102 µM) and an LC50 at 48 h [4, 8] of 0.015 µg/mL (≈ 0.0383 µM). The Ranking (carp and water flea) was “C (TLm (48 hrs.) value <0.5 ppm for carp, wherein toxicity to fishes is so strongly observed by usual application that both the application method and application area are strictly restricted.)”.
`C#CC(OC(=O)C1C(C=C(Cl)Cl)C1(C)C)c1cccc(Oc2ccc(Cl)cc2)c1` (stereo not drawn) [Compound (2) cis-/trans- = 50:50, 3-(4-chlorophenoxy)-α-ethynylbenzyl 2,2-dimethyl-3-(2,2-dichlorovinyl)cyclopropanecarboxylate] gave a mortality at 0.01 µg/female [1] of 100%, a mortality at 0.1 µg/female [1] of 100% and a mortality at 1 µg/female [1] of 100%. It also gave an LD50 [1] of 0.44 mg/kg, a mortality at 10 ng [1] of 100% and a mortality at 0.0001 mg [2] of 100%. The mortality at 0.0001 mg [2, 9] was 100%, the LC50 at 48 h [3] was over 10 µg/mL and the Ranking (carp and water flea) was “B (TLm (48 hrs.) value 10-0.5 ppm for carp; or TLm (48 hrs.) value >10 ppm for carp and TLm (3 hrs.) value <0.5 ppm for water flea, wherein appreciable toxicity to fishes is not observed by usual application but may be observed when applied to wide area at one time.)”. For the same molecule, the mortality at 80 ppm [5] was at least 90%, the mortality [6] was “not less than 90%” and the mortality [7] was “not less than 90%”.
